Laboratory results as given in patent US9034899B2, “Aryl, heteroaryl, and heterocycle substituted tetrahydroisoquinolines and use thereof” (Albany Molecular Research, Inc., priority 2009, dated 2015).
pIC50: −log10 of the molar value.

Experiments:
hDAT = hDAT (Homo sapiens (Human), UniProt Q01959); assay: DAT radioligand binding assay ([125I]RTI-55, HEK-293 membranes); conditions: (+)-enantiomers; read-out: DAT IC50
Method: Recombinant HEK-293 cells expressing either the hSERT, hDAT, or hNET proteins were harvested from T-175 flasks as follows. The medium was removed from the flasks and the cells rinsed with HBSS without Ca and without Mg. The cells were then incubated for 5-10 minutes in 10 mM Tris-Cl, pH 7.5, 5 mM EDTA before the cells were lifted with a combination of pipetting and scraping, as needed. The cell suspension was collected into centrifuge bottles and homogenized for 30 seconds with a Polytron homogenizer. The suspension was centrifuged for 30 minutes at 32,000×g, 4° C. The supernatant was decanted and the pellet resuspended and homogenized in 50 mM Tris-Cl, pH 7.5, 1 mM EDTA for 10 seconds. The suspension was then centrifuged again for 30 minutes at 32,000×g, 4° C. The supernatant was decanted and the pellet resuspended in 50 mM Tris-Cl, pH 7.5, 1 mM EDTA and briefly homogenized. A Bradford assay (Bio-rad) was performed and the membrane preparation diluted to 2 mg/ml with 50 mM Tris-Cl, pH 7.5, 1 mM EDTA. Aliquots were prepared, and then frozen and stored at −80° C.
Compounds were dissolved in 100% DMSO at a concentration 100 times the desired highest assay concentration, serially diluted 1:3 in 100% DMSO, and 0.4 μl/well of each solution was dispensed to a Nunc polypropylene, round bottom, 384-well plate. 100% inhibition is defined with 0.4 μl/well of 1 mM GBR-12935 dissolved in DMSO. 20 ul/well of a 2× membrane preparation (12.5 μg/ml in 30 mM sodium phosphate buffer, pH 7.9 at 4° C.) and 20 μl/well of a 2× radioligand solution ([…] [^125I]RTI-55 in 30 mM sodium phosphate buffer, pH 7.9 at 4° C.) were added to the well and the reaction incubated for 1 hour at room temperature. The contents of the assay plate were then transferred to a Millipore MultiscreenHTS GF/B filter plate which was pretreated with 0.5% PEI for at least one hour. The plate was vacuum-filtered and washed with 7 washes of 100 μl/well 50 mM Tris-Cl, pH 7.5, 120 mM NaCl, 5 mM KCl chilled to 4° C. The filtration and washing were completed in less than 90 seconds. The plates were air-dried overnight, 12 μl/well of MicroScint scintillation fluid added, and the plates counted in a Trilux.
The raw data was normalized to percent inhibition using control wells defining 0% (DMSO only) and 100% (selective inhibitor) inhibition which were run on each plate. Each plate was run in triplicate, and the concentration response curve thus generated was fit using the four-parameter dose response equation, Y=Bottom+(Top-Bottom)/(1+10^((LogIC50−X)*HillSlope)) in order to determine the IC50 value for each compound. The radioligand concentration chosen for each assay corresponds to the Kd concentration determined through saturation binding analysis for each assay.

SERT = assay: Occupancy assay, ex vivo binding in brain tissue, SERT
Excerpt: The general procedure for brain tissue collection and transporter occupancy assessment is briefly described as follows. Mice were sacrificed by asphyxiation in CO2, rats by decapitation and dogs by IV injection of euthanasia solution. For mice and rats, after the brains were removed from the skull, the forebrain tissue (removal of the brainstem and cerebellum) was used for SERT, NET, and DAT occupancy assessment. In dogs, the striatum was dissected for DAT occupancy and the remaining forebrain tissue (without the striatum, brainstem, and cerebellum) was used for SERT and NET occupancy assessment. The brain tissues were frozen in chilled isopentane and stored at −80° C. until homogenization.
The brain tissues were thawed and then homogenized using a polytron homogenizer (Kinematica). Sample aliquots were frozen immediately and stored at −80° C. Protein content was measured for each sample using a Coomassie protein assay kit (Pierce).
On the day of ex vivo binding for occupancy assessment, frozen sample aliquots were thawed and needle homogenized, and 100 μg of the tissue was incubated for SERT, NET, and DAT binding under assay conditions summarized in Table 2. After incubation, the reactions were terminated by the addition of ice-cold assay buffer and rapid filtration through a Brandel Cell Harvester using FPXLR-196 filters. The filters were washed twice with ice-cold incubation buffer, punched into a clear plate prior to the addition of 200 ul scintillation fluid per well. Radioligand was measured using a Wallac Microbeta liquid scintillation counter.
The specific binding was calculated by subtracting the value of the non-specific binding from that of the total binding in each sample. The percent occupancy was calculated as (1−specific binding in drug treated/specific binding in vehicle treated)×100%. For estimation of in vivo occupancy EC50 (total plasma concentration of compound producing 50% occupancy), plots of occupancy values versus plasma concentrations were fitted to a one-site binding model using nonlinear regression according to the following equation: % Occupancy=Emax*C/(EC50+C) where Emax is the maximal specific binding, C is the drug concentration, and EC50 is the total plasma concentration required for 50% binding site occupancy. Nonlinear regression was performed using GraphPad Prism version 3.00 (GraphPad Software, San Diego, Calif.).

Sequence of hDAT (Q01959 whole entry): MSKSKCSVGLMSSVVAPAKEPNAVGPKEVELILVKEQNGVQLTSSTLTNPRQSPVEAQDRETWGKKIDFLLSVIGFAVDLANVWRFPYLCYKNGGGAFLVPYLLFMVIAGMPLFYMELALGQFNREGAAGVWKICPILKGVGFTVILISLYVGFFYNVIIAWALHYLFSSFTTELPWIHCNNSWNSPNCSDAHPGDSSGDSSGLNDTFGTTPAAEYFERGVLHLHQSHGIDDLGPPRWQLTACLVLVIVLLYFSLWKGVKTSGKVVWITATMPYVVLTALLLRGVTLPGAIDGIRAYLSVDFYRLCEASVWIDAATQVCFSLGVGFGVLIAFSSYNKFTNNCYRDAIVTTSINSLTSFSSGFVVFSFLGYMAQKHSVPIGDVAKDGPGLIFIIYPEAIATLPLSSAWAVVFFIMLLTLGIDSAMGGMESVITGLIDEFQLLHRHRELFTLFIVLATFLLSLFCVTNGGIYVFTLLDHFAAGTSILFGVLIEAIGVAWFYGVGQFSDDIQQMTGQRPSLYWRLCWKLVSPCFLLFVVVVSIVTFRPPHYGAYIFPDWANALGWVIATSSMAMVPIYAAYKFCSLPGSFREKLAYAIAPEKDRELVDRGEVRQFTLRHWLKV

| SMILES | pIC50 (hDAT) | SERT Occupancy % (SERT; dose 1 mg/kg, time point 1 h) [%] | SERT Occupancy % (SERT; dose 1 mg/kg, time point 3 h) [%] | SERT Occupancy % (SERT; dose 3 mg/kg, time point 3 h) [%] |
| --- | --- | --- | --- | --- |
| CC1(C)NCC(c2ccc(Cl)c(Cl)c2)c2ccc(-c3cccnn3)cc21 (single isomer, unassigned) [Example 9, 4-(3,4-dichlorophenyl)-1,1-dimethyl-7-(pyridazin-3-yl)-1,2,3,4-tetrahydroisoquinoline] | 8.74 | 60 | – | – |
| FC(F)Oc1ccc(-c2ccc3c(c2)CNCC3c2ccc(Cl)c(Cl)c2)nn1 (centres unmarked) [Example 12, 4-(3,4-dichlorophenyl)-7-(6-(difluoromethoxy)pyridazin-3-yl)-1,2,3,4-tetrahydroisoquinoline] | 7.30 | – | 82 | – |
| CC1(C)NCC(c2ccc(Cl)c(Cl)c2)c2ccc(-c3ccc(N)nn3)cc21 (centres unmarked) [Example 13, 4-(3,4-dichlorophenyl)-7-(6-aminopyridazin-3-yl)-1,1-dimethyl-1,2,3,4-tetrahydroisoquinoline] | 8.62 | – | – | 55 |
| Cc1noc(C)c1-c1ccc2c(c1)CNCC2c1ccc(Cl)c(Cl)c1 (centres unmarked) [Example 25, 4-(4-(3,4-dichlorophenyl)-1,2,3,4-tetrahydroisoquinolin-7-yl)-3,5-dimethylisoxazole] | 7.33 | – | 50 | – |
| Clc1ccc(C2CNCc3cc(-c4cccnn4)ccc32)cc1Cl (centres unmarked) [Example 33, 4-(3,4-dichlorophenyl)-7-(pyridazin-3-yl)-1,2,3,4-tetrahydroisoquinoline] | 7.81 | 49 | – | – |
| Nc1ccc(-c2ccc3c(c2)CNCC3c2ccc(Cl)c(Cl)c2)nn1 (centres unmarked) [Example 34, 6-(4-(3,4-dichlorophenyl)-1,2,3,4-tetrahydroisoquinolin-7-yl)pyridazin-3-amine] | 8.15 | 10 | – | – |
| CC1(C)NCC(c2ccc(Cl)c(Cl)c2)c2ccc(-c3ccc4ncnn4c3)cc21 (centres unmarked) [Example 40, 4-(3,4-dichlorophenyl)-7-([1,2,4]triazolo[1,5-a]pyridin-6-yl)-1,1-dimethyl-1,2,3,4-tetrahydroisoquinoline] | 8.68 | – | – | 74 |
